From ChEMBL document CHEMBL3867472, “Discovery of benzofuran propanoic acid GPR120 agonists: From uHTS hit to mechanism-based pharmacodynamic effects” (Bioorg Med Chem Lett, 2016)
pEC50, pIC50: −log10 of the molar value.

Assays:
[1] = molecular target: T1, Free fatty acid receptor 1 (Homo sapiens, UniProt O14842); assay: Agonist activity at human GPR40 measured after 60 mins by IP1-HTRF assay; assay type: functional
[2] = molecular target: T1, Free fatty acid receptor 1; assay: Agonist activity at human GPR40 measured after 60 mins by IP1-HTRF assay relative to basal level; assay type: functional; set-up: concentration or dose not given beside the values
[3] = molecular target: T2, Free fatty acid receptor 4 (Mus musculus, UniProt Q7TMA4); assay: Agonist activity at mouse GPR120 expressed in CHOK1 cells measured after 60 mins by IP1-HTRF assay; assay type: functional, cell-based, CHO-K1
T2 sequence (Q7TMA4 whole entry): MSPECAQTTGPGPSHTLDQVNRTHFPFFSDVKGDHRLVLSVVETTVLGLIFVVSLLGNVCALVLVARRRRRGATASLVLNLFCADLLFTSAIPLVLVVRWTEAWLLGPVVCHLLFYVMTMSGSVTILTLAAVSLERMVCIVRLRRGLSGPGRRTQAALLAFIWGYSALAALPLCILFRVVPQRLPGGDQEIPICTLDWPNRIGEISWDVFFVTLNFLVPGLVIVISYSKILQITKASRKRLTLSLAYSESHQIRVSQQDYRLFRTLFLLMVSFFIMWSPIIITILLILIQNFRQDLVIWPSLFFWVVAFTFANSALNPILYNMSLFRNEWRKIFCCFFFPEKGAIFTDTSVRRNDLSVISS

[4] = molecular target: T3, Free fatty acid receptor 4 (Homo sapiens) (UniProt Q5NUL3); assay: Agonist activity at human GPR120 expressed in CHOK1 cells measured after 60 mins by IP1-HTRF assay relative to basal level; assay type: functional, cell-based; set-up: concentration or dose not given beside the values; conditions: CHO-K1
T3 sequence (whole entry): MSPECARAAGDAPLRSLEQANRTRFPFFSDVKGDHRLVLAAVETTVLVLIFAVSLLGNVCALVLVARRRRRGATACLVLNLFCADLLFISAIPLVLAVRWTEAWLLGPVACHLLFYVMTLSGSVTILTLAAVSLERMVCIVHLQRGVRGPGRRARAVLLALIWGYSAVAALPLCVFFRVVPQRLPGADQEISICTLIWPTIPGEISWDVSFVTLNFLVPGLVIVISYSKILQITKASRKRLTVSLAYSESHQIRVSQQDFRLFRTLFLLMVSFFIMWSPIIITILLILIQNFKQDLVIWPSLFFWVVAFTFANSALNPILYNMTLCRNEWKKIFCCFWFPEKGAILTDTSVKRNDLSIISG

[5] = molecular target: T4, Free fatty acid receptor 4 (Mus musculus) (UniProt Q7TMA4); assay: Agonist activity at mouse GPR120 expressed in CHOK1 cells measured after 60 mins by IP1-HTRF assay relative to basal level; assay type: functional, cell-based; set-up: concentration or dose not given beside the values; conditions: CHO-K1
T4 sequence (whole entry): T2 sequence (Q7TMA4 whole entry)

[6] = molecular target: T5, Free fatty acid receptor 4 (Homo sapiens, UniProt Q5NUL3); assay: Agonist activity at human GPR120 expressed in CHOK1 cells measured after 60 mins by IP1-HTRF assay; assay type: functional, cell-based, CHO-K1
T5 sequence (Q5NUL3 whole entry): T3 sequence (whole entry)

[7] = Cmax in mouse at 2 mg/kg, iv or 10 mg/kg, po; assay type: ADME, organism-based; conditions: in vivo
[8] = Protein binding in mouse plasma; assay type: ADME, cell-free; conditions: read-out: PPB (converted)
Cytochrome P450 3A4 = Cytochrome P450 3A4 (Homo sapiens, UniProt P08684); assay: Inhibition of CYP3A4 (unknown origin); assay type: ADME
[9] = Half life in mouse at 2 mg/kg, iv or 10 mg/kg, po; assay type: ADME, organism-based; conditions: in vivo
[10] = molecular target: Voltage-dependent L-type calcium channel subunit alpha-1C (Homo sapiens, UniProt Q13936); assay: Inhibition of Cav1.2 (unknown origin)
[11] = molecular target: Sodium channel protein type 5 subunit alpha (Homo sapiens, UniProt Q14524); assay: Inhibition of Nav1.5 (unknown origin)
[12] = Volume of distribution in mouse at 2 mg/kg, iv or 10 mg/kg, po; assay type: ADME, organism-based; conditions: in vivo
[13] = Oral bioavailability in mouse at 10 mg/kg; assay type: ADME, organism-based; conditions: in vivo
Cytochrome P450 2D6 = Cytochrome P450 2D6 (Homo sapiens, UniProt P10635); assay: Inhibition of CYP2D6 (unknown origin); assay type: ADME
[14] = Clearance in mouse at 2 mg/kg, iv or 10 mg/kg, po; assay type: ADME, organism-based; conditions: in vivo
Cytochrome P450 2C9 = Cytochrome P450 2C9 (Homo sapiens, UniProt P11712); assay: Inhibition of CYP2C9 (unknown origin); assay type: ADME
Sequence of Cytochrome P450 2C9 (P11712 whole entry): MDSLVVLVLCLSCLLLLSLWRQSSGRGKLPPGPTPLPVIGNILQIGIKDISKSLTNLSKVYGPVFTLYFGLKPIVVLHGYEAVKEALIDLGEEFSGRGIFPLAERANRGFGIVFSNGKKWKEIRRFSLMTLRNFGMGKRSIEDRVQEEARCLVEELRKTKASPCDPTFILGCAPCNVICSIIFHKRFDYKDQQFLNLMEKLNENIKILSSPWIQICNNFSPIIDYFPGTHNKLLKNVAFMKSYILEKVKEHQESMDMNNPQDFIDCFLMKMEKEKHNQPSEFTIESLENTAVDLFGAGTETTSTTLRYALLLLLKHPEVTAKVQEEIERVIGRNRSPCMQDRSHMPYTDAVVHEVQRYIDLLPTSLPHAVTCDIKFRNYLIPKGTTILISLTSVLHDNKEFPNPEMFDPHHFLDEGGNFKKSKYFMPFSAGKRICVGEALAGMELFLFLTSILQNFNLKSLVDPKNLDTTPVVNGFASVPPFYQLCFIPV

T1 sequence (O14842 whole entry): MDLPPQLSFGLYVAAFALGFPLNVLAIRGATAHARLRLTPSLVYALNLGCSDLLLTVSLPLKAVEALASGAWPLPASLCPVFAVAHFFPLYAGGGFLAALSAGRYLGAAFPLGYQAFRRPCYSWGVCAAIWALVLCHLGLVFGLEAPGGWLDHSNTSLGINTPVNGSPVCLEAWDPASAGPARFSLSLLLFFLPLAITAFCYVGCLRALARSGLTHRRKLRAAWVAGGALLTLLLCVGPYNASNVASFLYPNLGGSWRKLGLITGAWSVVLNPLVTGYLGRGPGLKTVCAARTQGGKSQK
Sequence of Voltage-dependent L-type calcium channel subunit alpha-1C (Q13936 whole entry): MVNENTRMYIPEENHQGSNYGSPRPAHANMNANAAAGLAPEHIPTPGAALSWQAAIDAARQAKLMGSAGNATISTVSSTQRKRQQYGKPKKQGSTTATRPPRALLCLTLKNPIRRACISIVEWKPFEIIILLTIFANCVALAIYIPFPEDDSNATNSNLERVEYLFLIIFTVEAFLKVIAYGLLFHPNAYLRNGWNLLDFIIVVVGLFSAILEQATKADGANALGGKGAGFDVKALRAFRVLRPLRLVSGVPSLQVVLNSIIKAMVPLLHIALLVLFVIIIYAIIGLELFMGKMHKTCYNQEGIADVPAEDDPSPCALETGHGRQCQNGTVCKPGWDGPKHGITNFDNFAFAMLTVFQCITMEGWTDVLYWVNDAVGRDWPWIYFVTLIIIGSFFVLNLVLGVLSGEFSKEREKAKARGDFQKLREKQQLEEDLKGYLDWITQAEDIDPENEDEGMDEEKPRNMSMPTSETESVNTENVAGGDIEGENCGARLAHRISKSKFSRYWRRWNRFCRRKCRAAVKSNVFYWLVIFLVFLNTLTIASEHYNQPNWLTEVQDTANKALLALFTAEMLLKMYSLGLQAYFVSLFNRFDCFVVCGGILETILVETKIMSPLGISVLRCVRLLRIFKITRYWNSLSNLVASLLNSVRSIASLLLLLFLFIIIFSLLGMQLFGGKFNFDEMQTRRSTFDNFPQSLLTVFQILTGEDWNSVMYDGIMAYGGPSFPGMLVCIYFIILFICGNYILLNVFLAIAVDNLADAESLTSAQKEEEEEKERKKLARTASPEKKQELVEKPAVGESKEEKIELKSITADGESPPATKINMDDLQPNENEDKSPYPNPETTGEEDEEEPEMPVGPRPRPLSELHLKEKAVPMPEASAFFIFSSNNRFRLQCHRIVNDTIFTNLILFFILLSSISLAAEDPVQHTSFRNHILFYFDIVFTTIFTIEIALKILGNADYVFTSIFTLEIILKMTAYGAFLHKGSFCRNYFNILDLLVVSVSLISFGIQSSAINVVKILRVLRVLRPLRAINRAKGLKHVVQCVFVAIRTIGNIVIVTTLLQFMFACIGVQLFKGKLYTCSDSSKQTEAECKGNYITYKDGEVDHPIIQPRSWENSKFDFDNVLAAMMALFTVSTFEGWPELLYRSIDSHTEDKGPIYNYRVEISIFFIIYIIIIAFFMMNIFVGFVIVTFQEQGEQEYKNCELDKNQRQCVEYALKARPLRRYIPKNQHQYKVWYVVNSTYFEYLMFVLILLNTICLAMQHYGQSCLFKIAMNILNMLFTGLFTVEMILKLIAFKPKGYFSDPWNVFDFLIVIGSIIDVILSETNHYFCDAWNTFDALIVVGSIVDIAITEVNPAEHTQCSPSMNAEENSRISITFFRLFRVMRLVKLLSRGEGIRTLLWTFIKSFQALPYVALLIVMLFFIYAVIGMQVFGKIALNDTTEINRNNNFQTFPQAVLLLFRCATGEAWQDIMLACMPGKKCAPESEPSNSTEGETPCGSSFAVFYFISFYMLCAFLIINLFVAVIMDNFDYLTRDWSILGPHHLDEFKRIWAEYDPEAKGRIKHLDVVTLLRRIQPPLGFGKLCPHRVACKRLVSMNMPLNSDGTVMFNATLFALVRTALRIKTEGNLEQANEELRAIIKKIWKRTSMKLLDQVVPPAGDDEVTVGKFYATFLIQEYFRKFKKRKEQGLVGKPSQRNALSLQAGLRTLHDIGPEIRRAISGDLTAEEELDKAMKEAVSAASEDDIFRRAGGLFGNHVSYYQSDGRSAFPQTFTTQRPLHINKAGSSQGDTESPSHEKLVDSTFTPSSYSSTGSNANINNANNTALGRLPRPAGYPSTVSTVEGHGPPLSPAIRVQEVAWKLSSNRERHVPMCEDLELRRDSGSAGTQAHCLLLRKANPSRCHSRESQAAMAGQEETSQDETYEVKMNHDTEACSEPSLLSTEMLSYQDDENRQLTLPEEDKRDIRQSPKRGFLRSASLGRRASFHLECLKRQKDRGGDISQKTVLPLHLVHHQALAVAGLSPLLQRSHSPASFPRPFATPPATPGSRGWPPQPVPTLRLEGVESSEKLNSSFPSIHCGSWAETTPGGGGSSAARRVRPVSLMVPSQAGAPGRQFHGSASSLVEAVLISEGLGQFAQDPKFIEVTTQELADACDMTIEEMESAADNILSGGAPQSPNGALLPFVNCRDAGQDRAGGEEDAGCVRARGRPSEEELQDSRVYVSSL
Sequence of Cytochrome P450 3A4 (P08684 whole entry): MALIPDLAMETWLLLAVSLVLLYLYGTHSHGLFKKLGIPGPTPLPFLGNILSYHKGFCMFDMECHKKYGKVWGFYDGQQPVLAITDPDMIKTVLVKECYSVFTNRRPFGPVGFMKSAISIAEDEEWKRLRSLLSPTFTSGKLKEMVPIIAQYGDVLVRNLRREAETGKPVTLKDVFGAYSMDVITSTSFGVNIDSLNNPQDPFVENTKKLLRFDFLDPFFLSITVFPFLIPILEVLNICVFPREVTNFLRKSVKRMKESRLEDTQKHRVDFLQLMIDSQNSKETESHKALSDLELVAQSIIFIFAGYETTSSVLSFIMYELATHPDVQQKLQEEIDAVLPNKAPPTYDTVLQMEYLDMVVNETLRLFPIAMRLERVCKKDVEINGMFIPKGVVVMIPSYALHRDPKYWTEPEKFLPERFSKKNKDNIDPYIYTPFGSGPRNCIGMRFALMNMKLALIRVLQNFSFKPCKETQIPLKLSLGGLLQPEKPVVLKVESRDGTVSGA
Sequence of Cytochrome P450 2D6 (P10635 whole entry): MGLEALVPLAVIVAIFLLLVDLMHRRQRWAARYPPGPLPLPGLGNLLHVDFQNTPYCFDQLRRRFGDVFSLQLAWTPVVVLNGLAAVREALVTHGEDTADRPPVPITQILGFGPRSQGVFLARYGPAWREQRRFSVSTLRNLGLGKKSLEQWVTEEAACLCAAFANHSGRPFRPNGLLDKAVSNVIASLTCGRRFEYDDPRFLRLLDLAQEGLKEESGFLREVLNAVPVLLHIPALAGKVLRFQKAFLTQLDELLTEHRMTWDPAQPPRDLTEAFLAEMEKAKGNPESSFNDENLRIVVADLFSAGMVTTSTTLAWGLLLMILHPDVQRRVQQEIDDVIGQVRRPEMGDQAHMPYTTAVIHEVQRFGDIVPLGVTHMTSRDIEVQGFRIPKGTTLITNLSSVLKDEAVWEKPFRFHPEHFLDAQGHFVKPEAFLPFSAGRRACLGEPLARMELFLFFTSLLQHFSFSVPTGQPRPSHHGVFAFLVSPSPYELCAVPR

pEC50 [1] | Activity [2] [%] | pEC50 [3] | Activity [4] [%] | Activity [5] [%] | pEC50 [6] | SMILES | also measured
5.27 | 46 | 8.15 | 69 | 75 | 7.70 | O=C(O)CCCOc1c(F)cc(-c2cc(OC(F)(F)F)ccc2F)cc1F | –
5.86 | 43 | 6.49 | 48 | 59 | 6.26 | O=C(O)CCc1cc2cc(-c3cccc(OC(F)(F)F)c3)ccc2o1 | –
5.60 | 40 | 7.46 | 65 | 66 | 6.82 | O=C(O)CCc1cc2cc(-c3cccc(OC4CCC4)c3)ccc2o1 | –
< 5.00 | – | 7.18 | 77 | 83 | 6.74 | Cc1ccc(Oc2cccc(-c3ccc(OCCCC(=O)O)cc3)c2)cc1 | –
5.47 | 67 | 7.47 | 80 | 70 | 6.70 | O=C(O)CCCOc1ccc(-c2cc(Oc3cccc(F)c3)ccc2Cl)cc1 | –
5.02 | 110 | 7.57 | 107 | 98 | 7.22 | O=C(O)CCCOc1ccc(-c2cc(Oc3cccc(F)c3)ccc2F)cc1 | –
< 5.00 | – | 6.50 | – | 28 | < 5.00 | Fc1ccc(OC(F)(F)F)cc1-c1ccc2oc(CCc3nn[nH]n3)cc2c1 | –
5.37 | 91 | 6.36 | 16 | 34 | 6.02 | O=C(O)CCCOc1ccc(-c2cc(OC(F)(F)F)ccc2F)cc1 | –
< 5.00 | – | 7.15 | 10 | 44 | 7.08 | CC(Cc1cc2cc(-c3cc(OC(F)(F)F)ccc3F)ccc2o1)C(=O)O (racemic) | –
< 5.00 | – | 7.11 | 32 | 29 | 6.60 | Cc1cc(OCCCC(=O)O)ccc1-c1cc(OC(F)(F)F)ccc1Cl | –
5.87 | – | 6.97 | – | – | 6.86 | O=C(O)CCC1Cc2cc(-c3cc(OC(F)(F)F)ccc3F)ccc2O1 (stereo in doubt; 45) [listing 1 of 2 here] | –
< 5.00 | – | < 5.00 | – | – | < 5.00 | O=C(O)c1cc2cc(-c3cc(OC(F)(F)F)ccc3F)ccc2o1 | –
< 5.00 | – | 7.44 | 60 | 66 | 6.73 | O=C(O)CCCOc1ccc(-c2cc(OC(F)(F)F)ccc2Cl)c(F)c1 | –
– | 91 | – | 49 | 65 | – | O=C(O)CCC1Cc2cc(-c3cc(OC(F)(F)F)ccc3F)ccc2O1 (stereo in doubt; 45) [listing 2 of 2 here] | –
5.53 | 51 | 7.55 | 51 | 69 | 7.17 | Cc1cc(OC2CCC2)cc(-c2ccc3oc(CCC(=O)O)cc3c2)c1 | –
5.45 | 91 | 7.54 | 71 | 80 | 7.00 | O=C(O)CCCOc1ccc(-c2cc(Oc3ccccc3)ccc2F)cc1 | –
< 5.00 | – | 5.66 | 31 | 15 | 5.09 | O=C(O)CCCOc1ccc(-c2ccccc2C(F)(F)F)cc1 | –
< 5.00 | – | 7.47 | 58 | 77 | 7.06 | O=C(O)CCCOc1ccc(-c2cc(Oc3cccnc3)ccc2Cl)cc1 | –

pEC50 [1] | Activity [2] [%] | pEC50 [3] | Activity [4] [%] | Activity [5] [%] | pEC50 [6] | SMILES | also measured
– | 24 | – | 101 | 68 | – | O=C(O)CCC1Cc2cc(-c3cc(OC(F)(F)F)ccc3F)ccc2O1 (stereo in doubt; 44) [listing 1 of 2 here] | –
5.86 | – | 7.51 | – | – | 7.11 | O=C(O)CCC1Cc2cc(-c3cc(OC(F)(F)F)ccc3F)ccc2O1 (stereo in doubt; 44) [listing 2 of 2 here] | –
< 5.00 | – | 5.73 | 19 | 20 | 5.52 | O=C(O)CCCOc1ccc(-c2ccccc2OC(F)(F)F)cc1 | –
< 5.00 | – | 7.33 | 87 | 86 | 6.83 | Cc1cc(-c2cc(OC(F)(F)F)ccc2F)cc(C)c1OCCCC(=O)O | –
< 5.00 | – | 7.19 | 50 | 55 | 6.73 | O=C(O)CCc1cc2cc(-c3cc(Cl)cc(OC4CCC4)c3)ccc2o1 | –
< 5.00 | – | 7.66 | 92 | 75 | 7.01 | O=C(O)CCc1cc2cc(-c3cc(C(=O)C4CC4)ccc3F)ccc2o1 | –
5.03 | 34 | 7.10 | 52 | 37 | 6.51 | Cc1cc(-c2cc(OC(F)(F)F)ccc2F)ccc1OCCCC(=O)O | –
5.95 | 30 | 7.49 | 66 | 65 | 6.92 | CCOc1ccc(Cl)c(-c2ccc(OCCCC(=O)O)cc2)c1 | –
< 5.00 | – | 6.38 | 25 | 21 | 6.26 | O=C(O)CCCOc1ccc(-c2ccccc2Oc2ccccc2)cc1 | –
< 5.00 | – | 7.80 | 61 | 73 | 7.03 | Cc1cc(-c2cc(OC(F)(F)F)ccc2Cl)cc(C)c1OCCCC(=O)O | Cmax [7]: 6.1 µM; fraction unbound [8]: 0.002; pIC50 (Cytochrome P450 3A4): 5.48; half-life [9]: 5.5 h; pIC50 [10]: 4.89; pIC50 [11]: 5.04; Vd [12]: 0.95 L/kg; bioavailability [13]: 41%; pIC50 (Cytochrome P450 2D6): < 4.30; clearance [14]: 4.9 mL/min/kg; pIC50 (Cytochrome P450 2C9): < 4.30
5.17 | 54 | 7.17 | 46 | 58 | 6.77 | O=C(O)CCCOc1ccc(-c2cccc(Oc3ccccc3)c2)cc1 | –
5.20 | 101 | 6.58 | 19 | 20 | 6.30 | COc1cccc(Oc2cccc(-c3ccc(OCCCC(=O)O)cc3)c2)c1 | –
< 5.00 | – | 7.49 | 68 | 61 | 7.18 | O=C(O)CCCOc1ccc(-c2cc(OC3CC3)ccc2F)cc1 | –
< 5.00 | – | < 5.00 | – | – | < 5.00 | O=C(O)CCCOc1ccc(-c2cccc(OCc3ccccc3)c2)cc1 | –
< 5.00 | – | 7.92 | 69 | 76 | 6.99 | O=C(O)CCc1cc2cc(-c3cc(OC(F)(F)F)ccc3Cl)ccc2o1 | –
< 5.00 | – | 7.13 | 24 | 57 | 6.09 | CC(CC(=O)O)c1cc2cc(-c3cc(OC(F)(F)F)ccc3F)ccc2o1 (racemic) | –
5.17 | 37 | 6.88 | 57 | 62 | 6.73 | Cc1cc(-c2cc(OC(F)(F)F)ccc2Cl)ccc1OCCCC(=O)O | –
5.50 | 22 | 6.85 | 71 | 58 | 6.54 | CCOc1ccc(F)c(-c2ccc(OCCCC(=O)O)cc2)c1 | –
